Laboratory results taken from patent publication US20250144172A1, “ANTI-FIBROTIC SIALIDASE INHIBITOR COMPOUNDS AND METHODS OF USE” (The Texas A&M University System, priority 2016, published 2025).
One block for each molecule: values may come before it.

Columns and labels:
[1] = recombinant human sialidase activity, 4MU-NANA cleavage at pH 6.4 and 7.0; assay type: biochemical
Experimental: In general, sialidase activity, including human sialidase activity, may be assessed at 37° C. in the presence of buffers ranging in pH from 3.7 to 7.4. Buffers with pH 3.7, 4.0, 4.6, 5.2 and 5.6 are 100 mM sodium acetate buffers. Buffers with pH 5.8, 6.4, 7.0 and 8.0 are based on Phosphate-Buffered Saline (PBS), with addition of 12 N HCl or 1 M NaOH to adjust the pH. Bovine serum albumin (BSA) is added to the buffer at a concentration of 100 ug/ml. Sialidase at a final concentration of 300 ng/ml is then added to the buffer. A sialidase inhibitor is then added to the mixture at a series of final concentrations. The reaction mixture is incubated for 30 minutes to allow the inhibitor to bind the sialidase. The fluorometric substrate 4MU-NANA [2′-(4-Methylumbelliferyl)-α-D-N-acetylneuraminic acid sodium salt hydrate is then added at a final concentration of 200 μM. Control reactions have no added inhibitor. The total volume of each reaction mixture is 0.1 ml. The cleavage of 4MU-NANA is then monitored by fluorescence every 20 minutes for 5 hours with excitation light at 360 nm and the fluorescence emission at 460 nm.
The fluorescence in the absence of sialidases is subtracted from all readings. The fluorescence of known concentrations of 4-methylumbelliferone is used to convert fluorescence to moles of product. […]

human PBMC [2] = experiment: TGF-β1 accumulation by human PBMC (antibody staining and ELISA); assay type: cell-based
Experimental: To determine if sialidases might cause cells to accumulate intracellular and extracellular TGF-β1, human PBMC were cultured with sialidases in 96 well plates at 5×10^5 cells/ml and 200 μl/well in FibroLife serum-free medium for five days, then air dried. The levels of TGF-β1 in or on the cells was detected by staining with an antibody against TGF-β1. Photomicrographs were analyzed by counting stained cells (FIG. 7B) and quantifying staining intensity using ImageJ (FIG. 7C).
PBMC were cultured in 96 well plates at 5×10^5 cells/ml and 200 μl/well in FibroLife serum-free medium. When the cells were plated, recombinant human sialidases were added to final concentrations of 200 ng/ml, and DANA or oseltamivir were added to 3 μM. After 5 days, culture supernatants were analyzed using a TGF-β1 ELISA kit (R&D Systems).

human PBMC [3] = experiment: fibrocyte formation in human PBMC, serum-free medium; assay type: cell-based; details: 5 days; for fibrocyte formation / differentiation: 100 ng/ml sialidase, 10 μg/ml DANA or 1 μg/ml SAP
Experimental: Human peripheral blood was collected from healthy adult volunteers who gave written consent and with specific approval from the Texas A&M University human subjects Institutional Review Board. Peripheral blood mononuclear cells (PBMC) were isolated from blood using Ficoll-Paque Plus (GE Healthcare Biosciences, Piscataway, NJ). Human PBMC were incubated in serum-free medium (FibroLife basal media (LM-0001, Lifeline Cell Technology, Walkersville, MD), supplemented with 10 mM HEPES (Sigma-Aldrich, St. Louis, MO), 1x non-essential amino acids (Sigma-Aldrich), 1 mM sodium pyruvate (Sigma-Aldrich), 2 mM glutamine (Invitrogen, Carlsbad, CA), 100 U/ml penicillin, 100 μg/ml streptomycin (Sigma-Aldrich), and 1x ITS-3 (Sigma-Aldrich) in the presence of absence of 100 ng/ml recombinant human sialidases (Origene, Rockville MD), 10 μg/ml DANA (Calbiochem, San Diego, CA), or 1 μg/ml human SAP (Calbiochem). After 5 days, fibrocytes were counted, and results are presented in FIG. 5.

[4] = system: human monocytes and lymphocytes; experiment: sialidase levels in human PBMC cultured with IL-6 (flow cytometry); assay type: cell-based; details: 100 and 1000 pg/ml IL-6; three days
Experimental: To determine the effects of IL-6 on NEU3 production by human PBMC, PBMC were cultured as above in serum-free medium at 10^5 cells/ml with 2 ml/well in 6-well tissue culture plates (VWR) in the presence or absence of recombinant human interleukin-6 (IL-6) (BioLegend). After three days, the medium was carefully removed and the cells were washed with 1 ml of phosphate buffered saline (PBS) at room temperature. The cells were detached with 500 μl of Accutase cell detachment solution (VWR) per well for 6 minutes at 37° C. 1000 μl RPMI medium supplemented as described above with BCS, penicillin, streptomycin and glutamine was added per well to neutralize the Accutase. After pipetting the cell solutions 4 times, the cells were placed in sterile 1.7 ml microtubes (Genesee Scientific, San Diego, CA) and cells were collected by centrifugation at 5000×g for 10 minutes at 4° C. The pelleted cells were washed twice by resuspension with 1000 μl of ice-cold PBS and centrifugation. The cells were resuspended in 200 μl of ice-cold 2% (w/v) paraformaldehyde (EMS, Hatfield, PA), in PBS for 10 minutes on ice for fixation. 1000 μl of ice-cold PBS was added and cells were collected by centrifugation. The cells were resuspended in 200 μl of ice-cold 2% (w/v) bovine serum albumin (BSA) (VWR) in PBS (PBSA), for 10 minutes on ice for blocking. […]

[5] = system: human pulmonary fibroblasts; experiment: human pulmonary fibroblasts cultured with TGF-β1; assay type: cell-based; details: 10 ng/ml TGF-β1, three days
Experimental: (§1) TGF-β1 is strongly associated with fibrosis so its effects on sialidase expression were determined. Human lung adenocarcinoma cell line A549, human small airway epithelial cells, human pulmonary fibroblasts, and human immune cells were cultured with or without 10 ng/ml of recombinant active TGF-β1, which is a standard concentration used in tissue culture experiments. After three days for A549 cells, airway epithelial cells, and fibroblasts, or five days for immune cells, the cells were stained with antibodies against sialidases.

A549 cells = experiment: sialidase staining of A549 cells cultured with TGF-β1; assay type: cell-based, human; details: 10 ng/ml TGF-β1, three days
Experimental: as §1

human PBMC [6] = experiment: sialidase staining of human PBMC cultured with TGF-β1; assay type: cell-based; details: 10 ng/ml TGF-β1, five days
Experimental: as §1

[7] = system: human small airway epithelial cells; experiment: sialidase staining of human small airway epithelial cells cultured with TGF-β1; assay type: cell-based; details: 10 ng/ml TGF-β1, three days
Experimental: as §1

[8] = system: mice with bleomycin-induced fibrosis; experiment: mouse bleomycin model of pulmonary fibrosis; assay type: in vivo; details: day 21
Experimental: The successful aspiration of bleomycin into the lungs was confirmed by listening for a crackling noise heard after the aspiration. Mice were weighed daily, and euthanized using CO2 following NIH guidelines at day 21 after bleomycin aspiration. The experiment was performed in accordance with the recommendations in the Guide for the Care and Use of Laboratory Animals of the National Institutes of Health. The Texas A&M University Animal Use and Care Committee approved the protocol.
The BALs were clarified by centrifugation at 500×g for 10 minutes, and the supernatants were transferred to Eppendorf tubes. The supernatants were flash frozen with liquid nitrogen, and stored at −20° C. until further use.
After collection of BAL fluid, mouse lungs were inflated with prewarmed Optimal Cutting Temperature (OCT) embedding medium (VWR, Radnor, PA) and then embedded in OCT, frozen on dry ice, and then stored at −80° C. 6-micron cryosections of mouse lungs were mounted on Superfrost Plus® microscope slides (VWR). The sections on the slides were allowed to air-dry for 24-48 hours. The slides were then fixed in acetone at room temperature for 20 minutes and air-dried for 10 minutes.
Then, starting 24 hours after bleomycin had been administered, the mice were given daily intraperitoneal injections of 10 mg/kg DANA (Calbiochem) in PBS or 10 mg/kg oseltamivir (Sigma) in PBS. Both inhibitors are quite polar and thus probably remain in the extracellular space. Assuming 2 ml of extracellular space in a 20 gram mouse, these doses would then be ˜3 μM. At day 21, mice were sacrificed and BAL and cryosections of lungs were obtained as described for Example 3. The experiment was performed in accordance with the recommendations in the Guide for the Care and Use of Laboratory Animals of the National Institutes of Health. The Texas A&M University Animal Use and Care Committee approved the protocol.
Treatment of mice with oropharyngeal bleomycin results in an initial inflammation, and then a fibrosis that has begun by day 10 after bleomycin treatment. To determine if sialidase inhibitors decrease fibrosis when treatment starts after the initial inflammation stage and when fibrosis is present, mice were treated with oropharyngeal bleomycin to induce symptoms of pulmonary fibrosis as described above. Then, starting 10 days after bleomycin had been administered, the mice were given daily intraperitoneal injections of 10 mg/kg DANA (Calbiochem) in PBS or 10 mg/kg oseltamivir (Sigma) in PBS. At day 21, mice were sacrificed and BAL and cryosections of lungs were obtained as described above. The experiment was performed in accordance with the recommendations in the Guide for the Care and Use of Laboratory Animals of the National Institutes of Health. The Texas A&M University Animal Use and Care Committee approved the protocol.
To determine if sialidase inhibitors could also reduce TGF-β1 levels in mice, mice were treated with bleomycin or saline, then injected daily with saline, DANA or oseltamivir starting at day 10 after bleomycin treatment, as described in Example 9. The mice were euthanized at day 21 and sections of lung tissue were stained for TGF-β1. Results are presented in FIG. 11A and are representative of results for three mice per group.

human NEU3 = human NEU3 (Homo sapiens (Human), UniProt Q9UQ49); experiment: human NEU3 sialidase inhibition; details: read-out: NEU3 IC50; human NEU3
human NEU3, sequence (Q9UQ49 whole entry): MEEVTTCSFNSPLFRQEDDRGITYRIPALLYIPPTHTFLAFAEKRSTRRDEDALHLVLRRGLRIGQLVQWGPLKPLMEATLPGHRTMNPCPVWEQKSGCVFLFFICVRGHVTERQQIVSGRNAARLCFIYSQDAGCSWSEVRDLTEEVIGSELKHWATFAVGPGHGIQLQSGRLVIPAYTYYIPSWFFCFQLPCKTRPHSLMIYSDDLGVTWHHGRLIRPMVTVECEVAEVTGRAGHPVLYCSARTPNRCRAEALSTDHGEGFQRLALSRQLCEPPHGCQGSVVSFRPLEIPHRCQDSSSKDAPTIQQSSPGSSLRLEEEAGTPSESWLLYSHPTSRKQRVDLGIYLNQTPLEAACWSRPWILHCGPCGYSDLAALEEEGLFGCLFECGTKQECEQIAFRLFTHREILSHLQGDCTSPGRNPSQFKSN

Molecule: NEU1: recombinant human NEU1 (sialidase 1), human neuraminidase 1
Sialidase activity ([1]; pH 6.4): 12.8 ± 1.3 μmole/min/mg protein
Sialidase activity ([1]; pH 7.0): 7.2 ± 0.9 μmole/min/mg protein
accumulation of TGF-β1 (human PBMC [2]; recombinant sialidase 200 ng/ml, five days): no significant effect
ability of SAP to inhibit fibrocyte formation (human PBMC [3]; 100 ng/ml sialidase with 1 μg/ml SAP): did not potentiate fibrocyte differentiation or counteract SAP
fibrocyte formation / differentiation (human PBMC [3]): did not potentiate fibrocyte differentiation

Molecule: IL-6: recombinant human interleukin-6 (IL-6) (BioLegend)
levels of NEU3 in human monocytes and lymphocytes [4]: significantly increased

sialidase levels (antibody staining) ([5]; pulmonary fibroblasts): increase levels of NEU3
Molecule: TGF-β1: recombinant active TGF-β1
proliferation of human pulmonary fibroblasts [5]: increased the proliferation
sialidase levels (antibody staining) (A549 cells): increase levels of NEU3
sialidase levels (antibody staining) (human PBMC [6]): increased levels of NEU2 and NEU3 in some cells
sialidase levels (antibody staining) [7]: increase levels of NEU3, and slightly increased levels of NEU1

IC50 (human NEU3): 61 µM
Molecule: CC(=O)N[C@H]1[C@H]([C@H](O)[C@H](O)CO)OC(C(=O)O)=C[C@@H]1O [Compound 1, N-Acetyl-2,3-dehydro-2-deoxyneuraminic acid, reference compound]
collagen deposition in the lungs (Sirius red) ([8]; 10 mg/kg daily i.p. starting 24 hours after bleomycin): reduced
collagen deposition in the lungs (Sirius red) ([8]; 10 mg/kg daily i.p. starting at day 10): reduced
TGF-β1 levels in lung tissue (staining) ([8]; daily injection starting at day 10): reduced TGF-β1 levels
effects of NEU2 and NEU3 on extracellular TGF-β1 (human PBMC [2]; inhibitor 3 μM, sialidases 200 ng/ml, 5 days, ELISA): blocked
NEU4 potentiation of fibrocyte differentiation (human PBMC [3]; 10 μg/ml DANA with 100 ng/ml NEU4): inhibited the NEU4 potentiation of fibrocyte differentiation
fibrocyte formation / differentiation (human PBMC [3]): inhibited fibrocyte differentiation
